Here are results for two compounds from publication PMC9696494, “Garcixanthone E and Garcimangophenone C: New Metabolites from Garcinia mangostana and Their Cytotoxic and Alpha Amylase Inhibitory Potential” (Life, 2022).

This experiment concerns the target T1, α-amylase.
T1 construct: gene AMY2A
The experiment is described as follows: EnzChek Ultra Amylase assay kit, enzyme inhibition. In kind it is biochemical.

`COc1cc2oc3cc(O)c(/C=C/C(C)(C)O)c(O)c3c(=O)c2c(CC=C(C)C)c1OC` [compound 1, 1,3-dihyroxy-6,7-dimethoxy-2-(3-hydroxy-3-methylbut-1-enyl)-8-(3-methylbut-2-enyl)-xanthone]: the half-inhibitory concentration (IC50) (as a rule, the concentration that inhibits the measured activity by half) worked out at 17.8 µM. In other words, the double-digit micromolar range.
Next, `C[C@@H]1O[C@@H](Oc2cc(O)cc(O)c2C(=O)c2cccc(O)c2)[C@H](O)[C@H](O)[C@H]1O` [compound 9, garcimangophenone C]: 12.9 µM.
